We go through seven compounds from patent publication US11066436B2, “5′-phosphorothiolate mRNA 5′-end (cap) analogs, mRNA comprising the same, method of obtaining and uses thereof” (Uniwersytet Warszawski, priority 2016, dated 2021).

Experiment [1] concerns rabbit reticulocyte lysate. As to the kind of experiment: Translational efficiency of capped Renilla luciferase mRNAs in rabbit reticulocyte lysate. The experiment is classed as biochemical. The following applies: Renilla luciferase mRNA capped with the analog; normalized to m^7GpppG-capped mRNA; biological triplicates. On the procedure:
Test 5. Study on the Effect of the Presence of Novel Cap Analogs on Translational Efficiency of mRNAs in Rabbit Reticulocyte Lysate.
The aim of this study was to check the effect of introducing novel cap analogs at the 5′ end of mRNAs on translation efficiency. For this purpose series of Renilla luciferase encoding mRNAs, and differing in the cap structure at the 5′ end were prepared. The transcripts used for this test were obtained by in vitro transcription reaction using SP6 RNA polymerase. As the template for the in vitro transcription a PCR product was used, prepared using primers […] (SEQ ID NO: 6) and […] (SEQ ID NO: 7) and the hRLuc-pRNA2(A)128 plasmid (Williams et al. 2010). PCR reaction thus conducted allowed to introduce promoter sequence for SP6 polymerase upstream of the sequence encoding Renilla luciferase. The transcription reaction itself was similar to the short RNA synthesis described above (Test 4). The reaction was conducted for 2 hours in 20 μl in 40° C. and contained the following: 1U SP6 polymerase, 1 U RiboLock RNase Inhibitor (ThermoFisher Scientific), 0.5 mM ATP/CTP/UTP, 0.125 mM GTP, 1.25 mM dinucleotide cap analog and […] of a template. Following 2 hours incubation, 1U DNase I (Ambion) was added and incubation was continued for 30 min in 37° C., after that EDTA was added to 25 mM final concentration. Obtained mRNAs were purified using NucleoSpin RNA Clean-up XS (Macherey-Nagel). Quality of the synthetized RNA was checked on a denaturing 15% polyacrylamide gel. The RNA concentrations were determined spectrophotometrically.
An in vitro translation reaction was performed in rabbit reticulocyte lysate (RRL, Promega) in conditions determined for cap-dependent translation (Rydzik et al., 2009). A typical reaction mixture (10 μl) contained: 40% RRL lysate, 0.01 mM mixture of amino acids (Promega), 1.2 mM MgCl2, 170 mM potassium acetate and a Renilla luciferase encoding mRNA with an appropriate cap analog at the 5′ end, the mixture being incubated in 37° C. for 1 hour. Four different concentrations of mRNAs: 0.1 ng/μl, 0.25 ng/μl, 0.5 ng/μl, 0.75 ng/μl were used in the experiment. Activity of synthesized luciferase was measured using Dual-Luciferase Reporter Assay System (Promega) in a microplate reader Synergy H1 (BioTek). Obtained results were analyzed in Origin (Gambit) software, and theoretical curve was fitted to experimental data, wherein the slope of obtained curve represents translation efficiency. Representative data were presented on FIG. 10, whereas average translation efficiency obtained for biological triplicates is presented in Table 6.

Experiment [2] addresses T1, Dcp1/2 decapping enzyme (SpDcp1/2) (Schizosaccharomyces pombe, UniProt O13828).
T1 construct: made in house
T1 sequence (O13828 1-243 limits assumed): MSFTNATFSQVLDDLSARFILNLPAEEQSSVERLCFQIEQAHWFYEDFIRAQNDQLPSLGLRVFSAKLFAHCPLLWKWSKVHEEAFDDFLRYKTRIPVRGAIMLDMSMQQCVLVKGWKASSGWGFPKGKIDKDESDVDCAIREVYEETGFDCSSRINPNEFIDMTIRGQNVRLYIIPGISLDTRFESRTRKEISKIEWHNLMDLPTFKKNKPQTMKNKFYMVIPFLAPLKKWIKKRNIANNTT
T1 sequence (Q9P805 1-127 partner): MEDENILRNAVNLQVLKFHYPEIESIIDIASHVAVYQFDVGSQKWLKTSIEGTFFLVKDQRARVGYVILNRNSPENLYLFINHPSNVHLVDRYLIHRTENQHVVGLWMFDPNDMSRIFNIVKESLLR
As to the kind of experiment: Susceptibility of short capped RNAs to degradation with the Dcp1/2 enzyme. Format: biochemical. The note with it: RNA capped with the analog; 3.5 nM Dcp1/2, time point 15 min, normalized to 0′ time. From the text:
Test 4. Susceptibility Study of Short RNA Molecules Comprising Cap Analogs at the 5′ End to Degradation with the Dcp1/2 Enzyme.
The aim of this study was to check whether incorporation of selected 5′-phosphothioate cap analogs to 5′ end of RNA could influence susceptibility of thus prepared transcripts towards Dcp1/2 decapping enzyme activity. Schizosaccharomyces pombe recombinant protein in the form of a heterodimer Dcp1/2 was obtained as described previously (Floor, Jones et al. 2010). The trancripts utilized in this assay were obtained by transcription in vitro using RNA SP6 polymerase (New England BioLabs). Annealed oligonucleotides: […] (SEQ ID NO.: 1), and […] (SEQ ID NO: 2) were used as a template in in vitro transcription, the oligonucleotides comprising the promoter sequence for SP6 polymerase (ATTTAGGTGACACTATAGA (SEQ ID NO: 3)) allow to obtain 35 nt long RNAs having a sequence of […] (SEQ ID NO: 4), however 5′ end capped RNAs are 36 nt long. Typical in vitro transcription reaction was performed in volume 20 μl and was incubated in 40° C. for 2 hours and contained the following: 1U SP6 polymerase, 1 U RiboLock RNase Inhibitor (ThermoFisher Scientific), 0.5 mM ATP/CTP/UTP, 0.125 mM GTP, 1.25 mM dinucleotide cap analog and 0.1 μM template. Following 2 hours incubation, 1U DNase I (Ambion) was added to the reaction mixture and incubation was continued for 30 min in 37° C., after that EDTA was added to 25 mM final concentration. Obtained RNAs were purified using RNA Clean & Concentrator-25 (Zymo Research). Then the quality of the synthesized RNA was determined on a denaturating 15% polyacrylamide gel. The concentration of the RNA was in turn evaluated spectrophotometrically. […] RNA having a cap at the 5′ end was 26 nt long. The reaction of cleaving the 3′ ends was as follows: 1 μM of RNA was incubated with 1 μM of DNazyme 10-23 in a mixture containing 50 mM MgCl2 and 50 mM Tris-HCl pH 8.0 for 1 hour in 37° C. (Coleman et al., 2004).
For enzymatic tests 20 ng of each RNA was used, which were incubated with 3.5 nM Dcp1/2 enzyme in buffer containing 50 mM Tris-HCl pH 8.0, 50 mM NH4Cl, 0.01% NP-40, 1 mM DTT, and 5 mM MgCl2. Reactions were performed at 37° C. in the final volume of 25 μl. The reaction was stopped after 0, 5, 15 and 30 min by adding an equal amount of a mixture of 5 M urea, 44% formamide, 20 mM EDTA, 0.03% bromophenol blue, 0.03% xylene cyanol. Reaction products were resolved on denaturing 15% polyacrylamide gels, after the electrophoretic separation was completed, the gel was stained with SYBR Gold (Invitrogen) and visualized using a Storm 860 PhosphorImager (GE Healthcare). Quantification of the obtained results was performed with ImageQuant software (Molecular Dynamics). Representative results of this assay were presented on FIG. 8, FIG. 9 and also in Table 6.

Another experiment has as its system mice with SMA. The following applies: reported by Van Meerbeke, Gibbs et al.; cited from earlier work.
Experiment [3] concerns the target T2, human DcpS enzyme (hDcpS) (Homo sapiens, UniProt Q96C86).
T2 construct: made in house
T2 sequence (Q96C86 1-337): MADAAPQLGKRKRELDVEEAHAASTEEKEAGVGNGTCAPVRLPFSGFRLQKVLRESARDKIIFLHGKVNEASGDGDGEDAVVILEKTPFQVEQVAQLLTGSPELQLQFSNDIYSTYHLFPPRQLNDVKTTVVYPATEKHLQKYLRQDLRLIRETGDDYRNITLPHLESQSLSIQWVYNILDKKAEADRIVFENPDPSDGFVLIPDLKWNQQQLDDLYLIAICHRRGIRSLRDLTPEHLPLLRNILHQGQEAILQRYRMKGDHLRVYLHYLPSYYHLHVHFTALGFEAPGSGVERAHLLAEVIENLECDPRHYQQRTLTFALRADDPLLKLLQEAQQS
As to the kind of experiment: Susceptibility of cap analogs to degradation by DcpS enzyme (RP-HPLC). The experiment is classed as biochemical. The note with it: cap analog 20 μM, hDcpS 100 nM, RP-HPLC. As for the experimental part:
Test 1. The Susceptibility Study of Analogs to Degradation by DcpS Enzyme.
The aim of the test was to check if new 5′-thiophosphate cap analogs are hydrolyzed by human DcpS enzyme (hDcpS). Recombinant human protein encoding DcpS enzyme was expressed as described previously (Kowalska, Lewdorowicz et al. 2008). The susceptibility of new analogs to hDcpS hydrolysis is tested in 50 mM Tris-HCl buffer containing 200 mM KCl and 0.5 mM EDTA. Reaction mixture includes the tested cap analog (20 μM) and hDcpS enzyme (100 nM) in 400 μl of buffer. At the appropriate intervals 100 μl sample is collected from the reaction mixture. Sample is incubated at 98° C. for 2.5 min, and then cooled to 0° C. and analyzed on RP-HPLC under conditions described in general informations. In tests also commercially available inhibitor of DcpS was tested, the compound RG3039 (no. 000) (https://www.mda.org/quest/fda-approves-phase-1-clinical-trial-rg3039-sma), GppSG (no. 19), GpppSG (no. 20), as well m^7GpppG (no. 0) and m^7Gpp (no. 00) as controls. Exemplary results obtained are shown on FIG. 5 and Table 5.

Structures are written as SMILES.

For `COC1C(O)C(COP(=O)(O)OP(=O)(S)OP(=O)(O)OCC2OC(n3cnc4c(=O)[nH]c(N)nc43)C(O)C2O)OC1n1c[n+](C)c2c(=O)[nH]c(N)nc21` (centres unmarked) [m2^7,2′-oGppspG D2], the relative translation efficiency in experiment [1] amounted to 3.45 ± 0.42. In experiment [2], the Dcp1/2 susceptibility was determined as 0.43.
Turning to `COC1C(O)[C@@H](COP(=O)(O)OP(=O)(O)OP(=O)([O-])SC[C@H]2O[C@@H](n3cnc4c(=O)[nH]c(N)nc43)C(O)C2O)O[C@H]1n1c[n+](C)c2c(O)nc(N)nc21` (some centres unmarked) [No. 38, P1-(2′-O-methyl-7-methyl-guanosin-5′-yl)-P3-(5′-deoxy-5′-thioguanosin-5′-yl) triphosphate], the relative translation efficiency in experiment [1] was 2.23 ± 0.31. The Dcp1/2 susceptibility in experiment [2] turned out to be 0.52.
The corresponding values for `COC1C(O)[C@@H](CSP(=O)([O-])OP(=O)(O)OP(=O)(O)OC[C@H]2O[C@@H](n3cnc4c(=O)[nH]c(N)nc43)C(O)C2O)O[C@H]1n1c[n+](C)c2c(O)nc(N)nc21` (some centres unmarked) [No. 26, P1-(2′-O-methyl-7-methyl-5′-deoxy-5′-thioguanosin-5′-yl)-P3-guanosin-5′-yl triphosphate] are 1.73 ± 0.24 and 0.07.
The corresponding values for `CO[C@@H]1[C@H](O)[C@@H](COP(=O)(O)OP(=O)([O-])OP(=O)(O)OC[C@H]2O[C@@H](n3cnc4c(=O)[nH]c(N)nc43)[C@H](O)[C@@H]2O)O[C@H]1n1c[n+](C)c2c(O)nc(N)nc21` [m2^7,2′-oGpppG] are 1.56 ± 0.14 and 0.52.
Regarding `Nc1nc(N)c2c(OCC3CCN(Cc4c(Cl)cccc4Cl)CC3)cccc2n1` [No. 000], the “motor function in mice with SMA” value in the experiment on mice with SMA is recorded as “improves motor function”.
Consider `Nc1nc2c(ncn2[C@@H]2O[C@H](COP(=O)(O)OP(=O)(O)OP(=O)(O)OC[C@H]3O[C@@H](n4cnc5c(=O)[nH]c(N)nc54)[C@H](O)[C@@H]3O)[C@@H](O)[C@H]2O)c(=O)[nH]1` [GpppG], for which the relative translation efficiency in experiment [1] amounted to 0.05 ± 0.01. For the same compound, in experiment [2], the Dcp1/2 susceptibility was 0.
As to `Cn1c[n+]([C@@H]2O[C@H](COP(=O)(O)OP(=O)([O-])OP(=O)(O)OC[C@H]3O[C@@H](n4cnc5c(=O)[nH]c(N)nc54)[C@H](O)[C@@H]3O)[C@@H](O)[C@H]2O)c2nc(N)[nH]c(=O)c21` [No. 0], in experiment [1], the relative translation efficiency is listed as 1.00. For the same compound, the DcpS susceptibility result in experiment [3] is reported as “hydrolyzable”. This compound had a Dcp1/2 susceptibility in experiment [2] of 0.69.
